Source: ChEMBL document CHEMBL1909046, “DrugMatrix in vitro pharmacology data”

Tests used:
[1] = target: Cytochrome P450 3A4 (Homo sapiens, UniProt P08684); conditions: bti-tn-5b1-4; further: in other assays of this panel Not Active means under 50% inhibition at 10 µM
[2] = target: T1, Thromboxane-A synthase (Homo sapiens, UniProt P24557); assay: biochemical; format: tissue-based, Platelet;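 further: enzyme inhibition assay with PGH2 supplied as substrate; in other assays of this panel Not Active means under 50% inhibition at 10 µM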
T1 sequence (P24557 whole entry): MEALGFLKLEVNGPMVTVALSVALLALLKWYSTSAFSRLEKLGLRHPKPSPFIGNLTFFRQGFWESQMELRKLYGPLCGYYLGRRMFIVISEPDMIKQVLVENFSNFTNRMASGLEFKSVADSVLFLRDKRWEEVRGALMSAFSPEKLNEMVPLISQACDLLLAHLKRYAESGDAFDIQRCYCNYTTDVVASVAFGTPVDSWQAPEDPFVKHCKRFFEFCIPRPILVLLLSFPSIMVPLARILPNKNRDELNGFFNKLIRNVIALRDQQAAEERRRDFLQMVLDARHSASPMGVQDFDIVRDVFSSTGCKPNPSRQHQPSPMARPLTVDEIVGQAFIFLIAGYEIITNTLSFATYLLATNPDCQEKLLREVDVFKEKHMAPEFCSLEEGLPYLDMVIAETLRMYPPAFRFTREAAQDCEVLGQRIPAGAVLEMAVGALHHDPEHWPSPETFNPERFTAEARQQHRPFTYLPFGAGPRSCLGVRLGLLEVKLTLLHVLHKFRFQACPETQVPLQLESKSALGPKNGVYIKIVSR

[3] = target: T2, Interstitial collagenase (Homo sapiens, UniProt P03956); assay: biochemical; format: tissue-based, Rheumatoid synovial fibroblasts;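 further: MMP-1 enzyme inhibition assay using a peptide substrate; in other assays of this panel Not Active means under 50% inhibition at 10 µM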
T2 sequence (P03956 whole entry): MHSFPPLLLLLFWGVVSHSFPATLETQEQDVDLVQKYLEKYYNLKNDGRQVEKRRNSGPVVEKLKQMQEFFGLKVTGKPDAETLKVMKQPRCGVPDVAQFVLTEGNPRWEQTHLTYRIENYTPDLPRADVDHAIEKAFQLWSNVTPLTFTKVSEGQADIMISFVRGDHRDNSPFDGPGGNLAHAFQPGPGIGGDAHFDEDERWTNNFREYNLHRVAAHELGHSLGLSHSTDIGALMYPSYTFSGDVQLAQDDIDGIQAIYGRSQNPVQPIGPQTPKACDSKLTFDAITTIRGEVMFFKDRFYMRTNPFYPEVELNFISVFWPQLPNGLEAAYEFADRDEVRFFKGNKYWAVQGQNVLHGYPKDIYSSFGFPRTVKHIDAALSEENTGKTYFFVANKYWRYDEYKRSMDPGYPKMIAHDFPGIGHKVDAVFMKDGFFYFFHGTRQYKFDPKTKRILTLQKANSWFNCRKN

[4] = target: T3, C-C chemokine receptor type 4 (Homo sapiens, UniProt P51679); format: cell membranes, Membrane; conditions: chem-1; further: in other assays of this panel Not Active means under 50% inhibition at 10 µM
T3 sequence (P51679 whole entry): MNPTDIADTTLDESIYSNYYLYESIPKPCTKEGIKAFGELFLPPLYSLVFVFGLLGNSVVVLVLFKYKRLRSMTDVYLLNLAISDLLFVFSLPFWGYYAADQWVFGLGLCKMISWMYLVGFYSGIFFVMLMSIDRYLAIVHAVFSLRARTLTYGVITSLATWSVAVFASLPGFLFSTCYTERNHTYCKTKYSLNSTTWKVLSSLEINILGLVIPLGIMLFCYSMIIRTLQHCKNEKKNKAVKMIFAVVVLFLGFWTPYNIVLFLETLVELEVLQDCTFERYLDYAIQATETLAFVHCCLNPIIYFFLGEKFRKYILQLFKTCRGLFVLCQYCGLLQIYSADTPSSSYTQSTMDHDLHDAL

[5] = target: T4, Substance-K receptor (Homo sapiens, UniProt P21452); format: cell membranes, CHO, Membrane; conditions: cho; further: in other assays of this panel Not Active means under 50% inhibition at 10 µM
T4 sequence (P21452 whole entry): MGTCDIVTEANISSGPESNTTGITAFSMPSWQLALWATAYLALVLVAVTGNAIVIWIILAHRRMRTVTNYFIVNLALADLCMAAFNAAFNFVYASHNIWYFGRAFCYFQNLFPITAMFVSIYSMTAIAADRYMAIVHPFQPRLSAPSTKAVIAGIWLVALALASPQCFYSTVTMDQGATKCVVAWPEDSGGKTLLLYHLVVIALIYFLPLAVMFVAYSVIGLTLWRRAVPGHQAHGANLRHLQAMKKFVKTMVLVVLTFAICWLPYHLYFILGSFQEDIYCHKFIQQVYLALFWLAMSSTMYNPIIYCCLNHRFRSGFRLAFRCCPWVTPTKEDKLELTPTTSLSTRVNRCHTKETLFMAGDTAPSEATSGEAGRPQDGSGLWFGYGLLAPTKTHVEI

[6] = target: Substance-P receptor (Homo sapiens, UniProt P25103); format: cell membranes, CHO, Membrane; conditions: cho; further: in other assays of this panel Not Active means under 50% inhibition at 10 µM
Sequence of Substance-P receptor (P25103 whole entry): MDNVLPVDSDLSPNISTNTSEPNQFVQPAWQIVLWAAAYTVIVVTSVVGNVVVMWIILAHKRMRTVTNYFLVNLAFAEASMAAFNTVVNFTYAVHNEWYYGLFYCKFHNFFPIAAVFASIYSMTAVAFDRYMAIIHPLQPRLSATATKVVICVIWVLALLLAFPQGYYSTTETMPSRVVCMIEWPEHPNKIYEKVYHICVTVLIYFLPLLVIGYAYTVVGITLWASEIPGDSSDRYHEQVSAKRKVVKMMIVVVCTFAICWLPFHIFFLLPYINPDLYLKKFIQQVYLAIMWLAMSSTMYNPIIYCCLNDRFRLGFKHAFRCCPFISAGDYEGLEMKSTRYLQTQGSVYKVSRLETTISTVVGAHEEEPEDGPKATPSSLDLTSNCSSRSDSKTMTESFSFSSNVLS

[7] = target: Cytochrome P450 2C19 (Homo sapiens, UniProt P33261); conditions: bti-tn-5b1-4; further: in other assays of this panel Not Active means under 50% inhibition at 10 µM
Sequence of Cytochrome P450 2C19 (P33261 whole entry): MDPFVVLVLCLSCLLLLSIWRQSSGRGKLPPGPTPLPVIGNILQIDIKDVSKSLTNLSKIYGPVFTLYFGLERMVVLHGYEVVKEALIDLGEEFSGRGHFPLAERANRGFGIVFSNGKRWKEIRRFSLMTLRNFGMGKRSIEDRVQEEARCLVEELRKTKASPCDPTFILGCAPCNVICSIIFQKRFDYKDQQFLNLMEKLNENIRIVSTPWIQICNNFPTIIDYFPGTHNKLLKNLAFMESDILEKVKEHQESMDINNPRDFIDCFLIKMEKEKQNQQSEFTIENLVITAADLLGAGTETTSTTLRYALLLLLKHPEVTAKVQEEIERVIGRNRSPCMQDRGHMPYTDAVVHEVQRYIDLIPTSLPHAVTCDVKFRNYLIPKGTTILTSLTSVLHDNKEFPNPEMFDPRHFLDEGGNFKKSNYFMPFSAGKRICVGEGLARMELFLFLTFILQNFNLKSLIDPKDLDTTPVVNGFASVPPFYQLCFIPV

[8] = DRUGMATRIX: Sodium/nucleoside co-transporter radioligand binding (ligand: nitrobenzylthioinosine); format: cell membranes, Cavia porcellus, Dunkin-Hartley, Cerebral cortex, Membrane; conditions: Not Active = under 50% inhibition at 10 µM

Sequence of Cytochrome P450 3A4 (P08684 whole entry): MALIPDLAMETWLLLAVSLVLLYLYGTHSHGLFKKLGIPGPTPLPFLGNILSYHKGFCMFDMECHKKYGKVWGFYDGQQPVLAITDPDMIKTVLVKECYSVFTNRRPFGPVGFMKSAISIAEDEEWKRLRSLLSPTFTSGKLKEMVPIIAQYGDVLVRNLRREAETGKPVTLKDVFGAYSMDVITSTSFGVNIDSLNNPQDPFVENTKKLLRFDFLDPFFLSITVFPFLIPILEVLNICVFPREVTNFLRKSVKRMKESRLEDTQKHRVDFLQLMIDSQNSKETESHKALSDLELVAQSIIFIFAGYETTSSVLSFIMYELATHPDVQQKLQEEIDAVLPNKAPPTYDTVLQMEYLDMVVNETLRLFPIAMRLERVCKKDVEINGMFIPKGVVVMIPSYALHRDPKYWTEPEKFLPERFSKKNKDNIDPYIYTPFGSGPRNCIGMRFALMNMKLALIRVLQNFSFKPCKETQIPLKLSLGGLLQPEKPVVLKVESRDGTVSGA

Compound	IC50 [1]	Ki [1]	IC50 ([2]; platelet)	IC50 [3]	IC50 [4]	IC50 [5]	IC50 [6]	IC50 [7]	Ki [7]	IC50 [8]	Ki [8]	IC50 ([2]; read-out: IC50) [µM]	IC50 ([3]; read-out: IC50) [µM]
CN(C)CCC=C1c2ccccc2CCc2ccccc21 [AMITRIPTYLINE]	Not Active	Not Active	Not Active	Not Active	Not Active	Not Active	Not Active	Not Active	Not Active	Not Active	Not Active	–	–
C[C@]12CC[C@H]3[C@@H](CCC4=CC(=O)CC[C@@H]43)[C@@H]1CC[C@@H]2O [NANDROLONE]	Not Active	Not Active	Not Active	Not Active	Not Active	Not Active	Not Active	Not Active	Not Active	Not Active	Not Active	–	–
COc1cccc2c1C(=O)c1c(O)c3c(c(O)c1C2=O)C[C@@](O)(C(C)=O)C[C@@H]3O[C@H]1C[C@H](N)[C@H](O)[C@H](C)O1 [DAUNORUBICIN]	Not Active	Not Active	Not Active	Not Active	Not Active	Not Active	Not Active	Not Active	Not Active	Not Active	Not Active	–	–
CC(O)(P(=O)(O)O)P(=O)(O)O [ETIDRONIC ACID]	Not Active	Not Active	Not Active	Not Active	Not Active	Not Active	Not Active	Not Active	Not Active	Not Active	Not Active	–	–
CC(=O)Oc1ccccc1C(=O)O [ASPIRIN]	Not Active	Not Active	Not Active	Not Active	Not Active	Not Active	Not Active	Not Active	Not Active	Not Active	Not Active	–	–
O=c1[nH]c(=O)n([C@H]2C[C@H](O)[C@@H](CO)O2)cc1F [FLOXURIDINE]	Not Active	Not Active	Not Active	Not Active	Not Active	Not Active	Not Active	Not Active	Not Active	Not Active	Not Active	–	–
O=C(O)CC(O)(CC(=O)O)C(=O)O [CITRIC ACID]	Not Active	Not Active	Not Active	Not Active	Not Active	Not Active	Not Active	Not Active	Not Active	Not Active	Not Active	–	–
CCCCC1=NC2(CCCC2)C(=O)N1Cc1ccc(-c2ccccc2-c2nnn[nH]2)cc1 [IRBESARTAN]	Not Active	Not Active	Not Active	Not Active	Not Active	Not Active	Not Active	Not Active	Not Active	Not Active	Not Active	–	–
O=c1c(-c2ccc(O)cc2)coc2cc(O)cc(O)c12 [GENISTEIN]	Not Active	Not Active	–	Not Active	Not Active	Not Active	Not Active	Not Active	Not Active	Not Active	Not Active	7.72	–
CN(C)C(=N)NC(=N)N [METFORMIN]	Not Active	Not Active	Not Active	Not Active	Not Active	Not Active	Not Active	Not Active	Not Active	Not Active	Not Active	–	–
C[C@H]1O[C@H](O[C@H]2[C@H](O)[C@@H](O)[C@@H](O[C@H]3[C@H](O)[C@@H](O)C(O)O[C@@H]3CO)O[C@@H]2CO)[C@H](O)[C@@H](O)[C@@H]1N[C@H]1C=C(CO)[C@@H](O)[C@H](O)[C@H]1O (stereo partly drawn) [ACARBOSE]	Not Active	Not Active	Not Active	Not Active	Not Active	Not Active	Not Active	Not Active	Not Active	Not Active	Not Active	–	–
COc1ccccc1N	Not Active	Not Active	Not Active	Not Active	Not Active	Not Active	Not Active	Not Active	Not Active	Not Active	Not Active	–	–
CC(O)COC[C@H]1O[C@@H]2O[C@H]3[C@H](O)[C@@H](O)[C@@H](O[C@H]4[C@H](O)[C@@H](O)[C@@H](O[C@H]5[C@H](O)[C@@H](O)[C@@H](O[C@H]6[C@H](O)[C@@H](O)[C@@H](O[C@H]7[C@H](O)[C@@H](O)[C@@H](O[C@H]8[C@H](O)[C@@H](O)[C@@H](O[C@H]1[C@H](O)[C@H]2O)O[C@@H]8COCC(C)O)O[C@@H]7COCC(C)O)O[C@@H]6COCC(C)O)O[C@@H]5COCC(C)O)O[C@@H]4COCC(C)O)O[C@@H]3COCC(C)O (stereo partly drawn) [2-HYDROXYPROPYL-BETA-CYCLODEXTRIN]	Not Active	Not Active	Not Active	Not Active	Not Active	Not Active	Not Active	Not Active	Not Active	Not Active	Not Active	–	–
CS(=O)(=O)Nc1ccc([N+](=O)[O-])cc1Oc1ccccc1 [NIMESULIDE]	Not Active	Not Active	Not Active	–	Not Active	Not Active	Not Active	Not Active	Not Active	Not Active	Not Active	–	23.3
C[N+](C)(C)C[C@H](O)CC(=O)[O-] [LEVOCARNITINE]	Not Active	Not Active	Not Active	Not Active	Not Active	Not Active	Not Active	Not Active	Not Active	Not Active	Not Active	–	–
O=C(O)c1cc(-c2ccc(F)cc2F)ccc1O [DIFLUNISAL]	Not Active	Not Active	Not Active	Not Active	Not Active	Not Active	Not Active	Not Active	Not Active	Not Active	Not Active	–	–
CN1CCN(C(c2ccccc2)c2ccccc2)CC1 [CYCLIZINE]	Not Active	Not Active	Not Active	Not Active	Not Active	Not Active	Not Active	Not Active	Not Active	Not Active	Not Active	–	–
CC(C)(C)NCC(O)COc1cccc2c1CC(O)C(O)C2 (stereo not drawn) [NADOLOL]	Not Active	Not Active	Not Active	Not Active	Not Active	Not Active	Not Active	Not Active	Not Active	Not Active	Not Active	–	–
